The structures appear in SMILES notation.

The test system of one test is C. elegans. The experiment in a line: Lifespan of C. elegans under normal and mild oxidative stress (Paraquat) conditions. The test is classed as in vivo. The settings on record: for increase of median lifespan: 10 nM and 100 nM, p<0.0002. The method, then:
Lifespan Protocol: Wild-type worms were synchronized and hatched L1s were transferred to normal NGM agar plates until L4/young adult stage (3 days). 100 synchronized stage L4 worms per group were picked and placed on NGM agar plates seeded with E. coli strain OP-50 (=day 1 of study). Paraquat was added in the indicated concentration to the agar plates, the Compound 2 concentrations were dissolved in the E. coli suspension. The worms were maintained at 21° C. throughout the duration of the study. Live worms were placed on new plates every day to eliminate progeny.
Statistics: For the statistical analysis of the lifespan study with C. elegans, data were analyzed via Kaplan-Meier survival curves and statistical significance between curves was determined with the Log-rank (Mantel_Cox) test using Prism 6 (GraphPad Software, La Jolla Calif., USA, www.graphpad.com).

The test system of the next test is adiponectin. The experiment in a line: Adiponectin gene expression (real-time PCR) in 3T3L1 adipocytes. Type of test: cell-based. The settings on record: for adiponectin expression, fold change to control (FIG. 8): 48 hours. The protocol: Cell Culture: 3T3L1 adipocytes were seeded with 20,000 cells per well on 96-well tissue culture plates in DMEM containing 10% FBS and 1% penicillin-streptomycin. After reaching confluency (3 days), cells were induced to differentiate with a standard differentiation media (DM2-L1, Zen-Bio Inc., NC) for 3 days, then cells were maintained in DMEM (10% FBS, 1% penicillin-streptomycin) for another 8 days to induce lipid accumulation. Cells were then treated with indicated concentration of Compound 2 for 48 hours.
(§1) Compound 2 was dissolved in 100% DMSO to a stock concentration of 100 mM. This stock was further diluted to indicated concentrations in DMEM media.
Gene Expression: 3T3L1 adipocytes were grown and treated as described above. The medium was removed and the cells were washed with cold PBS. Cells Lysis, reverse transcription and real-time PCR was performed according to the instructions of the TaqMan® Gene Expression Cells-to-CT™ Kit manual (Life Technologies Inc, Cat #4399002). cDNA was probed with adiponectin and normalized to 18S.
In general terms: In qPCR the cycle at which signal appears reflects the starting amount.

Test [1] has as its system acetyl-CoA carboxylase (ACC). Nature of the test: Western blot, phosphorylated/total acetyl-CoA carboxylase in C2C12 muscle cells. The test is classed as cell-based. The settings on record: for increase in the ratio of phosphorylated to total ACC: 24 h; for ratio of phosphorylated/total ACC (FIG. 6B): 24 hours, control approximately 1.25. The method, then:
Cell Culture: C2C12 muscle cells were seeded with 400,000 cells per well on 6-well tissue culture plates in Dulbecco's modified eagle's medium (DMEM) containing 10% fetal bovine serum (FBS) and antibiotics (1% penicillin-streptomycin) at 37° C. in 5% CO2. After reaching confluency (24 hours), cells were induced to differentiate with DMEM containing 2% Horse Serum for 5 to 6 days until myotubes were fully formed. Cells were then treated with indicated concentration of Compound 2 for 4 and 24 hours.
as §1
Western blots: Phospho-AMPK, AMPK, Phospho-ACC, ACC antibodies were obtained from Cell Signaling (Danvers, Mass.). Sir2 antibody was obtained from MyBiosource (San Diego, Calif.). Protein levels of cell extracts were measured by BCA kit (Thermo Scientific, Pittsburgh, Pa.). For Western blot, 10-50 μg protein was resolved on 4-15% gradient polyacrylaminde gels (Criterion precast gel, Bio-Rad Laboratories, Hercules, Calif.), transferred to either PVDF or nitrocellulose membranes, incubated in blocking buffer (3% BSA or 5% non-fat dry milk in TBS) and then incubated with primary antibody (1:1000 dilution), washed and incubated with horseradish peroxidase- or fluorescence-conjugated secondary antibody (1:10000 dilution). Visualization was conducted using BioRad ChemiDoc instrumentation and software (Bio-Rad Laboratories, Hercules, Calif.) and band intensity was assessed using Image Lab 4.0 with correction for background and loading controls.

The next test concerns C2C12 muscle cells. Nature of the test: Fatty acid oxidation (oxygen consumption rate, Seahorse XF-24) in C2C12 muscle cells. The test is classed as cell-based. The settings on record: C2C12 muscle cells. The protocol: Cell Culture: C2C12 muscle cells were seeded with 40,000 cells per well on Seahorse tissue culture plates in Dulbecco's modified eagle's medium (DMEM) containing 10% fetal bovine serum (FBS) and antibiotics (1% penicillin-streptomycin) at 37° C. in 5% CO2. After reaching confluency (24 hours), cells were induced to differentiate with DMEM containing 2% Horse Serum for 3 to 4 days until myotubes were fully formed. Cells were then treated with indicated concentration of Compound 2 for 24 hours.
as §1
Fatty acid oxidation: Baseline and palmitate-stimulated oxygen consumption rates were measured with XF-24 analyzer (Seahorse Bioscience (now part of Agilent Technologies), MA, USA). After 24 hour treatment with Compound 2 of differentiated C2C12 muscle cells, cells were washed twice with non-buffered carbonate-free pH 7.4 low glucose (2.5 mM) DMEM containing carnitine (0.5 mM), equilibrated with 600 μl of the same media in a non-CO2 incubator for 45 minutes, and then inserted into the instrument for 15 minutes of further equilibration, followed by O2 consumption measurement. Three successive baseline measures at five-minute intervals were taken prior to injection of palmitate (200 μM final concentration). Sets of three five-minute intervals followed by 10-minute time delay were continued over a 2 to 3 hour period after palmitate injection. The area under the curve of 02 consumption change from baseline for each sample was then calculated and used for subsequent analysis. Data are represented as mean±SD for each treatment group.

The next test has as its system 3T3L1 adipocytes. Nature of the test: Lipid accumulation (Oil Red Staining) in 3T3L1 adipocytes. The following applies: 72 hours; for Oil Red absorbance (FIG. 11): control approximately 0.66. Type of test: cell-based. The method, then:
Cell Culture: 3T3L1 adipocytes were seeded with 80,000 cells per well on 24-well tissue culture plates in high glucose (25 mM) DMEM containing 10% FBS and antibiotics. After reaching confluency (3 days), cells were induced to differentiate with a standard differentiation media (DM2-L1, Zen-Bio Inc., NC) for 3 days, then cells were maintained in DMEM (10% FBS, 1% penicillin-streptomycin) for another 8 days to induce lipid accumulation. Cells were then treated with indicated concentration of Compound 2 for 72 hours.
as §1
Lipid accumulation (Oil Red Staining): 3T3L1 adipocytes were seeded and treated as described above. After 72 hours of treatment with Compound 2, lipid accumulation in adipocytes was measured via Oil Red Staining. Cells were washed with phosphate buffered saline (PBS) once, then cells were fixated with 10% formalin for 1 hour. After removal of the formalin, cells were washed with ddH2O twice, then washed with 60% isopropanol. Cells were dried completely. Cells were stained with Oil Red working solution (˜5 mM) for 25 minutes, then immediately washed with ddH2O four times, then dried completely again. Oil Red dye was eluted with 100% isopropanol and absorbance was read at 500 nm. Unstained cells plus isopropanol was used as a blank and subtracted from all readings. Data are represented as mean±SEM for each treatment group.

Setting [2] is: mild oxidative stress (500 uM Paraquat).

As for `CC(C)C[C@@H]1NC(N=C(N)N)=NC1=O` [Compound 2], in the test on C. elegans (setting [2]), the “increase of maximum lifespan” value came out at 14%. Further, the “increase of median lifespan” value in the test with C. elegans (setting [2]) turned out to be 30%; in the test on C. elegans (normal conditions), 18%. Further, in the test on adiponectin (10 nM and 100 nM, 48 hour treatment), the “increase of adiponectin gene expression” value is “approximately 35%”. In addition, the figures for the “adiponectin expression, fold change to control (FIG. 8)” value in the test on adiponectin (10 nM) and in the test on adiponectin (100 nM) were “approximately 1.35 fold change” and “approximately 1.4 fold change”, respectively. Besides, the “increase in the ratio of phosphorylated to total ACC” value in test [1] (10 nM) is given as 46%; in test [1] (100 nM), 21%. Further, the “ratio of phosphorylated/total ACC (FIG. 6B)” value in test [1] (10 nM) is on record as “approximately 1.8”; in test [1] (100 nM), “approximately 1.52”. Further, the “increase of the baseline oxygen consumption rate (area under the curve)” value with C2C12 muscle cells (10 nM, 24 hour treatment, prior to palmitate injection, p=0.002) was 60%. In addition, the “further increase of palmitate-induced oxygen consumption vs control” value with C2C12 muscle cells (after palmitate injection (200 μM), p=0.002) is given as ~75%. Moreover, the “effect on baseline and palmitate-stimulated oxygen consumption rate (OCR)” value in the test with C2C12 muscle cells (concentrations in excess of luM (not shown)) is on record as “no effect”. For the same compound, the “dose-response of OCR effects (area under the curve)” value in the test on C2C12 muscle cells (dose-responsive only at 0-10 nM) was “plateaued between 10 and 100 nM”. For the same compound, the “dose-response on baseline and palmitate-stimulated OCR” value in the test on C2C12 muscle cells (higher concentrations (>100 nM)) is recorded as “diminishing responses”. Also, the “Oil Red absorbance (FIG. 11)” value in the test on 3T3L1 adipocytes (1 nM, 500 nm) is reported as “approximately 0.57”; in the test on 3T3L1 adipocytes (10 nM, 500 nm) it was “approximately 0.58”; in the test with 3T3L1 adipocytes (50 nM, 500 nm), “approximately 0.53”; in the test on 3T3L1 adipocytes (100 nM, 500 nm), “approximately 0.54”; with 3T3L1 adipocytes (200 nM, 500 nm) it was “approximately 0.51”; in the test with 3T3L1 adipocytes (350 nM, 500 nm), “approximately 0.55”. In the test on 3T3L1 adipocytes (500 nM), the “Oil Red absorbance (FIG. 11)” value is reported as “approximately 0.68”. In the test with 3T3L1 adipocytes (50 to 350 nM, p<0.05), the “reduction in lipid accumulation (plateau effect)” value is “up to 23%”. In addition, the lipid reducing effect result in the test with 3T3L1 adipocytes (higher concentration (500 nM)) is “lost”.

For the origin of these results see patent publication US10344002B2, “Compositions and methods for treating metabolic disorders” (NuSirt Sciences, Inc., priority 2016, dated 2019).
